Tests used:
[1] = system: cytokine IL-8; assay: Inhibition of LPS-triggered IL-8 secretion in THP-1 cells (ELISA of supernatant); type: cell-based; conditions: Homo sapiens
Experimental: The concentration of the cytokines was determined in the supernatant by means of commercially available ELISA kits.

[2] = target: T1, glucocorticoid receptor (GR) (Homo sapiens, UniProt P04150); assay: Binding to recombinantly produced glucocorticoid receptor (cytosol of baculovirus-infected Sf9 cells, [3H]-dexamethasone as reference); conditions: recombinant GR, Sf9 cytosol preparations
T1 construct: made in house; host or cells: Sf9 cells infected with recombinant baculovirus (cytosol preparation)
T1 sequence (P04150 1-777): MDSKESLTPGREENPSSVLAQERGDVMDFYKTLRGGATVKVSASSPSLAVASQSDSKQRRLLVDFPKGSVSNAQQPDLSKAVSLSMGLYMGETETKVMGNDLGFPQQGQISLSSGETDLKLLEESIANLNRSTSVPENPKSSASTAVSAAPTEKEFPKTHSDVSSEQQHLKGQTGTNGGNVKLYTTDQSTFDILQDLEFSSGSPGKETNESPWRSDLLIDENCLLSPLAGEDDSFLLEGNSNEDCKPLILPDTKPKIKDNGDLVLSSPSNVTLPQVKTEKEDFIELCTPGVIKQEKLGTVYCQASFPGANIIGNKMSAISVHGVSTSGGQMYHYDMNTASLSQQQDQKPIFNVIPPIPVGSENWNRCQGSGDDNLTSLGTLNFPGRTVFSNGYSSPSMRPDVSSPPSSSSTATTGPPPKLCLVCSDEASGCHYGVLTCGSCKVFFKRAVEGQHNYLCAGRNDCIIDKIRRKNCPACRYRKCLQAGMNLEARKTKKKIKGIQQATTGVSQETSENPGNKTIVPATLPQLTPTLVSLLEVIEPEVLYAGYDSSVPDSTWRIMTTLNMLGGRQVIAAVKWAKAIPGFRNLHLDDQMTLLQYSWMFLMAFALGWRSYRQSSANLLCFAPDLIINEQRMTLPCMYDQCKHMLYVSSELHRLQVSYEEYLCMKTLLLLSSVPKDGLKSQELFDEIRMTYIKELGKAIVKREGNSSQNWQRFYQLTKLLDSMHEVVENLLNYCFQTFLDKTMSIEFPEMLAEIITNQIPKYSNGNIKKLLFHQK
Excerpt: (§1) The binding of the substances to the glucocorticoid receptor (GR) and other steroid hormone receptors (mineral corticoid receptor (MR), progesterone receptor (PR) and androgen receptor (AR)) is examined with the aid of recombinantly produced receptors. Cytosol preparations of Sf9 cells, which had been infected with recombinant baculoviruses, which code for the GR, are used for the binding studies. In comparison to reference substance [^3H]-dexamethasone, the substances show a high to very high affinity to GR.

[3] = target: T2, progesterone receptor (PR) (Homo sapiens, UniProt P06401); assay: Binding to recombinantly produced progesterone receptor
T2 construct: made in house
T2 sequence (P06401 1-933): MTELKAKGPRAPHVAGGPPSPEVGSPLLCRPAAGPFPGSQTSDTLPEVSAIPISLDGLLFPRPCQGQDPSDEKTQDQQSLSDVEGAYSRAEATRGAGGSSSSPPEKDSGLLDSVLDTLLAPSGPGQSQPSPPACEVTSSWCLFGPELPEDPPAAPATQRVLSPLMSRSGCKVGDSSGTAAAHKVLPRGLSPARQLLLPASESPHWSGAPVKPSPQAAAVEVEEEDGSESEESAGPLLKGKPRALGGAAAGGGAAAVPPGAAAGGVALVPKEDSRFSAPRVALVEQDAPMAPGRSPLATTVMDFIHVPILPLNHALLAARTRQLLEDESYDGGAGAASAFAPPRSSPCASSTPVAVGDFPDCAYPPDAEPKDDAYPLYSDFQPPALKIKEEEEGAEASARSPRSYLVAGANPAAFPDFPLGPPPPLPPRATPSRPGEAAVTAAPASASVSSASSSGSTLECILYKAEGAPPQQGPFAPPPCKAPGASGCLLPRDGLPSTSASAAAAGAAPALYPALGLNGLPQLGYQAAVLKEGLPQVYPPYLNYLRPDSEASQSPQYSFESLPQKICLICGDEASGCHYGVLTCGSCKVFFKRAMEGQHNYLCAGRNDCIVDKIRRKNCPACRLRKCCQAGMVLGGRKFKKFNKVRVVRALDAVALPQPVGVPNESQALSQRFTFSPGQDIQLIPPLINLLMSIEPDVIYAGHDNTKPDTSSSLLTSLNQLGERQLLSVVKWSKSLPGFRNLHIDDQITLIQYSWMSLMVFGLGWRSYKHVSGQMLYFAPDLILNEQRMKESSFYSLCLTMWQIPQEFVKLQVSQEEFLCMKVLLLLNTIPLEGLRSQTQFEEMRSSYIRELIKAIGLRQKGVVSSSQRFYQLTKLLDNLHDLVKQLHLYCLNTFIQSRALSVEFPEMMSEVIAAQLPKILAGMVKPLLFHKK
Excerpt: as §1

[4] = target: ER; assay: Binding to ER (steroid receptor selectivity profile)
[5] = target: T3, mineral corticoid receptor (MR) (Homo sapiens, UniProt P08235); assay: Binding to recombinantly produced mineral corticoid receptor
T3 construct: made in house
T3 sequence (P08235 1-984): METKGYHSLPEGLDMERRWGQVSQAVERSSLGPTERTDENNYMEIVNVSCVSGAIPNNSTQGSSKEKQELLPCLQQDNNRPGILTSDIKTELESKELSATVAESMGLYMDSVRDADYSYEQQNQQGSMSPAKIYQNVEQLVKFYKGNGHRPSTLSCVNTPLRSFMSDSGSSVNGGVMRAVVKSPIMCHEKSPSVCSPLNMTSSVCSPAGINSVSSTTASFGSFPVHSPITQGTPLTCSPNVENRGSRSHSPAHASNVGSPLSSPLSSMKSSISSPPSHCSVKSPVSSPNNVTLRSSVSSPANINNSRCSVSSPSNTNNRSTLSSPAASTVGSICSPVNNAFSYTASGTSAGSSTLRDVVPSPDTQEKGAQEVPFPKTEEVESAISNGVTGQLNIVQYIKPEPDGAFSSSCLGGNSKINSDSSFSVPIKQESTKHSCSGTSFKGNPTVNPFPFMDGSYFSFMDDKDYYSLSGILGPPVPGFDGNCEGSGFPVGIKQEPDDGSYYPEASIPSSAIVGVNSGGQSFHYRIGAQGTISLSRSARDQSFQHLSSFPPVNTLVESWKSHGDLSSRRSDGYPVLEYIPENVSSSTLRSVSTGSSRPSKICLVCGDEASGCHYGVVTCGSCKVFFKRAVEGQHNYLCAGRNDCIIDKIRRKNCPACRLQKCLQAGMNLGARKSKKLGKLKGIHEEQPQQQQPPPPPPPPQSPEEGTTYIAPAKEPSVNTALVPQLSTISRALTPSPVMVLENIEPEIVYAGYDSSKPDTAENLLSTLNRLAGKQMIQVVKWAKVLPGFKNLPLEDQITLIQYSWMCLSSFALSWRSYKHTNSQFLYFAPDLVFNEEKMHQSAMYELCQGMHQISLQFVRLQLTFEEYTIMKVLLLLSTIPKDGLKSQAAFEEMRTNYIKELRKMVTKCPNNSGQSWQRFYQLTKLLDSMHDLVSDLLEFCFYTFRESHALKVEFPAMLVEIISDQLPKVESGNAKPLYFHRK
Excerpt: as §1

[6] = target: T4, androgen receptor (AR) (Homo sapiens, UniProt P10275); assay: Binding to recombinantly produced androgen receptor
T4 construct: made in house
T4 sequence (P10275 1-920): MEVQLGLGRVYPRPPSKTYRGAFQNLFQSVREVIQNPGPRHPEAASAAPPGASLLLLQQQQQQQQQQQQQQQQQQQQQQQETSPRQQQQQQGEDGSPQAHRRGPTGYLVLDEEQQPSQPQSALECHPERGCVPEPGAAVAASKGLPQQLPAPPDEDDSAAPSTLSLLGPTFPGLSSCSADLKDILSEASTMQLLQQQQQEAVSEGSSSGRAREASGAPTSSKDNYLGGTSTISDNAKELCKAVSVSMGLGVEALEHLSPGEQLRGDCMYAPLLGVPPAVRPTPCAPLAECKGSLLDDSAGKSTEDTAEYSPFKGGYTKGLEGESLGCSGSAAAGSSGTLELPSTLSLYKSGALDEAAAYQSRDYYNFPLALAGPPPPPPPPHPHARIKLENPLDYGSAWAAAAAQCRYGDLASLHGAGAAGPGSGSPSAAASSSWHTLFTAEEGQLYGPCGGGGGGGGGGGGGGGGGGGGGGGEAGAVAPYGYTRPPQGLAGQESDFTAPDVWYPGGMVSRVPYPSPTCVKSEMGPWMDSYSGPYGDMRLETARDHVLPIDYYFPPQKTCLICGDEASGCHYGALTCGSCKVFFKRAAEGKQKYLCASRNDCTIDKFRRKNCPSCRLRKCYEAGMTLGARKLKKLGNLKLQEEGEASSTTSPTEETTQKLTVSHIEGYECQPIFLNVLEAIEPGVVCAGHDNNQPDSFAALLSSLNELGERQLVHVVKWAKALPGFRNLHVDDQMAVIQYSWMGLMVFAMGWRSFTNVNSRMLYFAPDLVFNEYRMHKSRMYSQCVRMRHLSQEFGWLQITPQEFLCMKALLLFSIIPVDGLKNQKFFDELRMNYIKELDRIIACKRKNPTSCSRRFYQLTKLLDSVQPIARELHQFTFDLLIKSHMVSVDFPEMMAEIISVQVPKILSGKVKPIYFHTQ
Excerpt: as §1

Row | IC50 ([1]; LPS-triggered IL-8 secretion, read-out: IC50(IL8)) [nM] | IC50 [2] [nM] | IC50 [3] [nM] | IC50 [4] [nM] | IC50 [5] [nM] | IC50 [6] [nM] | Structure (SMILES) | Emax ([1]; efficacy of IL-8 inhibition, LPS, read-out: eff. relative to dexamethasone) [%]
1 | 30 | – | – | – | – | – | COc1c(C(C)C)ccc2c1C(C)(C)CC(O)(C(F)(F)F)C2Nc1cccc2c1ccc(=O)n2-c1ccc(F)nc1 (stereo not shown) [Example 1, 5-{[2-Hydroxy-6-isopropyl-5-methoxy-4,4-dimethyl-2-(trifluoromethyl)-1,2,3,4-tetrahydronaphthalene-1-yl]amino}-1-(6-fluoropyridine-3-yl)-1H-quinoline-2-one] | 84.1
2 | – | 32 | > 1000 | > 1000 | > 1000 | > 1000 | CC(C)c1ccc2c(c1O)C(C)(C)CC(O)(C(F)(F)F)C2Nc1cccc2c1ccc(=O)n2-c1ccc(F)nc1 (stereo not shown) [Example 2, 5-{[2,5-Dihydroxy-6-isopropyl-4,4-dimethyl-2-(trifluoromethyl)-1,2,3,4-tetrahydronaphthalene-1-yl]amino}-1-(6-fluoropyridine-3-yl)-1H-quinoline-2-one] | –

Source: EP2072509A1, “1-Aryl-1H-quinoline-2-ones: process for their production and their use as anti-inflammatory agents” (Bayer Schering Pharma Aktiengesellschaft, priority 2007, dated 2009)
